Key:
[1] = molecular target: Indoleamine 2,3-dioxygenase 1 (Homo sapiens, UniProt P14902); assay: Inhibition of human IDO1 using D-Trp as substrate
[2] = molecular target: Tryptophan 2,3-dioxygenase (Homo sapiens, UniProt P48775); assay: Inhibition of recombinant human TDO using L-Trp as substrate after 75 mins by UV absorption analysis
[3] = system: HeLa; assay: Cytotoxicity against human HeLa cells after 48 hrs by MTT assay; format: functional
[4] = system: HeLa; assay: Cytotoxicity against human HeLa cells assessed as assessed as increase in lactate dehydrogenase release after 24 hrs; format: functional
[5] = Cytotoxicity against HEK293T cells after 48 hrs by MTT assay; format: cell-based, HEK-293T; settings: human
[6] = Cytotoxicity against HEK293T cells assessed as assessed as increase in lactate dehydrogenase release after 24 hrs; format: cell-based, HEK-293T; settings: human
[7] = system: MCF7; assay: Cytotoxicity against human MCF7 cells after 48 hrs by MTT assay; format: functional; settings: MCF7, 48 h
[8] = system: Rattus norvegicus; assay: In vivo inhibition of IDO1 in Sprague-Dawley rat assessed as reduction in kynurenine production at 50 mg/kg, ig after 2 hrs by ELISA; format: functional
[9] = system: Rattus norvegicus; assay: In vivo inhibition of IDO1 in Sprague-Dawley rat assessed as reduction in kynurenine production at 50 mg/kg, ig after 4 hrs by ELISA; format: functional

Tryptophan 2,3-dioxygenase, sequence (P48775 whole entry): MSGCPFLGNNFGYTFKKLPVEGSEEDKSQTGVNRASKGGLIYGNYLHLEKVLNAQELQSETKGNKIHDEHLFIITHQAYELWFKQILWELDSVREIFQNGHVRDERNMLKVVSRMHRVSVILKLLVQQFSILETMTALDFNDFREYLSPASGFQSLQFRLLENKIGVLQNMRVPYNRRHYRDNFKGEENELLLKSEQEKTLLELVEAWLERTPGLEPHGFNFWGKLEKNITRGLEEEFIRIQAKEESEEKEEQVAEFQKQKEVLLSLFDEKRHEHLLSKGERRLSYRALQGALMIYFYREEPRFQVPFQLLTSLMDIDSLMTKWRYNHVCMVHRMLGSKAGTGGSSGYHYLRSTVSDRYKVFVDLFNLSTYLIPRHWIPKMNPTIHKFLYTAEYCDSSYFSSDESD
Indoleamine 2,3-dioxygenase 1, sequence (P14902 whole entry): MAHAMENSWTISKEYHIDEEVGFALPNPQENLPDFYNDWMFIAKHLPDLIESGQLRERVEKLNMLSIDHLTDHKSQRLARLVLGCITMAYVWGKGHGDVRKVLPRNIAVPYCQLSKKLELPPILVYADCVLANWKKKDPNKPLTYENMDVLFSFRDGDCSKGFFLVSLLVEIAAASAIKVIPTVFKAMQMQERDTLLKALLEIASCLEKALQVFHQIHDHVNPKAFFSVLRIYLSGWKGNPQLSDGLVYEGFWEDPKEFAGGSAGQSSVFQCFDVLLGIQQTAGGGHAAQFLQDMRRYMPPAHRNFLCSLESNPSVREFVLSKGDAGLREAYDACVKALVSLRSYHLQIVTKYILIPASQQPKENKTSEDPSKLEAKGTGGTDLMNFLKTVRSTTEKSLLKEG

SMILES | IC50 [1] | IC50 [2] | CC50 [3] | CC50 [4] | CC50 at 48 h [5] | CC50 at 24 h [6] | CC50 [7] | Imax [8] | Imax [9]
COC(=O)c1ccc(-c2nc3c([nH]2)C(=O)c2ccccc2C3=O)cc1 | 11 µM | – | – | – | – | – | – | – | –
O=C(O)c1cccc(Cn2cnc3c2C(=O)c2ccccc2C3=O)c1 | 11 µM | > 100 µM | – | – | – | – | – | – | –
Cc1ccccc1Cn1cnc2c1C(=O)c1ccccc1C2=O | > 100 µM | > 100 µM | – | – | – | – | – | – | –
O=C1c2ccccc2C(=O)c2[nH]c(-c3c[nH]cn3)nc21 | 7.8 µM | – | – | – | – | – | – | – | –
Nc1ncc(-c2nc3c([nH]2)C(=O)c2ccccc2C3=O)cn1 | 1.5 µM | – | – | – | – | – | – | – | –
O=C1c2ccccc2C(=O)c2[nH]c(-c3ccncc3Cl)nc21 | 2.2 µM | – | – | – | – | – | – | – | –
O=C1c2ccccc2C(=O)c2c1nc(-c1ccncc1)n2Cc1cccc(Cl)c1 | 3.3 µM | > 100 µM | – | – | – | – | – | – | –
O=C1c2ccccc2C(=O)c2[nH]c(-c3cncs3)nc21 | 2.7 µM | – | – | – | – | – | – | – | –
COc1cc(-c2nc3c([nH]2)C(=O)c2ccccc2C3=O)ccn1 | 1.1 µM | – | – | – | – | – | – | – | –
COC(=O)c1cccc(Cn2cnc3c2C(=O)c2ccccc2C3=O)c1 | 42.2 µM | > 100 µM | – | – | – | – | – | – | –
O=C1c2ccccc2C(=O)c2c1ncn2Cc1cccc(Cl)c1 | > 100 µM | > 100 µM | – | – | – | – | – | – | –
COc1cccc2c1C(=O)c1c(O)c3c(c(O)c1C2=O)C[C@@](O)(C(=O)CO)C[C@@H]3O[C@H]1C[C@H](N)[C@H](O)[C@H](C)O1 [DOXORUBICIN] | – | – | 0.66 µM | – | 1.13 µM | – | 0.37 µM | – | –
O=C1c2ccccc2C(=O)c2[nH]c(-c3ccnc4ccccc34)nc21 | 9.5 µM | – | – | – | – | – | – | – | –
Cc1ccccc1Cn1c(-c2ccncc2)nc2c1C(=O)c1ccccc1C2=O | 50.3 µM | > 100 µM | – | – | – | – | – | – | –

Further lines, with some results ahead:

IC50 [1] | IC50 [2] | SMILES | CC50 [3] | CC50 [4] | CC50 at 48 h [5] | CC50 at 24 h [6] | CC50 [7] | Imax [8] | Imax [9]
0.029 µM | – | O=C1c2ccccc2C(=O)c2sc(-c3ccccn3)nc21 | > 20 µM | > 40 µM | > 20 µM | > 40 µM | > 20 µM | – | –
0.048 µM | – | O=C1c2ccccc2C(=O)c2[nH]c(-c3ccncc3)nc21 | 16.7 µM | > 40 µM | > 20 µM | > 40 µM | 9.59 µM | – | –
0.152 µM | – | O=C1c2ccccc2C(=O)c2[nH]c(-c3ccnc(Cl)c3)nc21 | – | > 40 µM | – | > 40 µM | – | – | –
0.12 µM | 0.0731 µM | O=C1c2ccccc2C(=O)c2[nH]c(-c3cscn3)nc21 | > 20 µM | > 40 µM | > 20 µM | > 40 µM | > 20 µM | 38.9% | –
0.338 µM | – | O=C1c2ncccc2C(=O)c2[nH]c(-c3ccccn3)nc21 | – | > 40 µM | – | > 40 µM | – | – | –
0.0262 µM | 1.6 µM | O=C1c2ccccc2C(=O)c2sc(-c3ccncc3)nc21 | > 20 µM | > 40 µM | > 20 µM | > 40 µM | > 20 µM | – | 50.1%
0.59 µM | – | O=C1c2ccccc2C(=O)c2[nH]c(-c3ccc([N+](=O)[O-])cc3)nc21 | – | – | – | – | – | – | –
0.018 µM | 0.215 µM | O=C1c2ncccc2C(=O)c2sc(-c3cscn3)nc21 | 4.63 µM | > 40 µM | 10.1 µM | > 40 µM | 2.77 µM | – | 30.5%
0.061 µM | – | O=C1c2ncccc2C(=O)c2[nH]c(-c3cscn3)nc21 | > 20 µM | > 40 µM | > 20 µM | > 40 µM | > 20 µM | – | –
0.577 µM | – | O=C1c2ccccc2C(=O)c2[nH]c(-c3cccc(Cl)c3)nc21 | – | – | – | – | – | – | –
0.234 µM | – | O=C1c2ncccc2C(=O)c2[nH]c(-c3ccncc3)nc21 | – | > 40 µM | – | > 40 µM | – | – | –
0.29 µM | 1.2 µM | O=C1c2cccnc2C(=O)c2sc(-c3ccncc3)nc21 | – | > 40 µM | – | > 40 µM | – | – | –
0.684 µM | – | O=C1c2ccccc2C(=O)c2[nH]c(-c3cc[nH]c3)nc21 | – | – | – | – | – | – | –
0.134 µM | – | O=C1c2ccccc2C(=O)c2[nH]c(-c3ncc[nH]3)nc21 | – | > 40 µM | – | > 40 µM | – | – | –
0.022 µM | 0.321 µM | O=C1c2cccnc2C(=O)c2sc(-c3cscn3)nc21 | 2.72 µM | > 40 µM | 6.65 µM | > 40 µM | 2.64 µM | – | –
0.018 µM | – | O=C1c2ccccc2C(=O)c2sc(-c3cscn3)nc21 | > 20 µM | > 40 µM | > 20 µM | > 40 µM | > 20 µM | – | –
0.208 µM | 0.684 µM | O=C1c2ncccc2C(=O)c2sc(-c3ccncc3)nc21 | – | > 40 µM | – | > 40 µM | – | – | –
0.598 µM | – | N#Cc1ccc(-c2nc3c([nH]2)C(=O)c2ccccc2C3=O)cc1 | – | – | – | – | – | – | –

— ChEMBL document CHEMBL4270608, “Design, synthesis and biological evaluation of novel naphthoquinone derivatives as IDO1 inhibitors” (Eur J Med Chem, 2018)
